Test results published in patent publication US9115143B2, “Substituted indole derivatives as gamma secretase modulators” (Janssen Pharmaceuticals, Inc., priority 2011, dated 2015).

Columns and labels:
Aβ42 = experiment: In vivo efficacy B-1a: brain soluble Aβ42 in non-transgenic rodents, ELISA; set-up: species or system mouse; conditions: dose 30 mg/kg oral dosing, brain soluble fraction, untreated animals (Ctrl) set at 100; for response vs control in vivo at 30 mg/kg: Mus musculus, po, read-out: Aβ42 (% vs Ctrl)_Mean
Source text: (§1) To determine whether acute administration of an Aβ42 lowering agent would reduce Aβ42 levels in vivo, non-transgenic rodents, e.g. mice or rats were used. Animals treated with the Aβ42 lowering agent were examined and compared to those untreated or treated with vehicle and brain levels of soluble Aβ42 and total Aβ were quantitated by standard techniques, for example, using ELISA. Treatment periods varied from hours (h) to days and were adjusted based on the results of the Aβ42 lowering once a time course of onset of effect could be established.
(§2) A typical protocol for measuring Aβ42 lowering in vivo is shown but it is only one of many variations that could be used to optimize the levels of detectable Aβ. For example, Aβ42 lowering compounds were formulated in 20% of Captisol® (a sulfobutyl ether of β-cyclodextrin) in water or 20% hydroxypropyl β cyclodextrin. The Aβ42 lowering agents were administered as a single oral dose or by any acceptable route of administration to overnight fasted animals. After 4 h, the animals were sacrificed and Aβ42 levels were analysed.
(§3) Blood was collected by decapitation and exsanguinations in EDTA-treated collection tubes. Blood was centrifuged at 1900 g for 10 minutes (min) at 4° C. and the plasma recovered and flash frozen for later analysis. The brain was removed from the cranium and hindbrain. The cerebellum was removed and the left and right hemisphere were separated. The left hemisphere was stored at −18° C. for quantitative analysis of test compound levels. The right hemisphere was rinsed with phosphate-buffered saline (PBS) buffer and immediately frozen on dry ice and stored at −80° C. until homogenization for biochemical assays.
(§4) Mouse brains from non-transgenic animals were resuspended in 8 volumes of 0.4% DEA (diethylamine)/50 mM NaCl containing protease inhibitors (Roche-11873580001 or 04693159001) per gram of tissue, e.g. for 0.158 g brain, add 1.264 mL of 0.4% DEA. All samples were homogenized in the FastPrep-24 system (MP Biomedicals) using lysing matrix D (MPBio #6913-100) at 6 m/s for 20 seconds. Homogenates were centrifuged at 20800×g for 5 min and supernatants collected. Supernatants were centrifuged at 221.300×g for 50 min. The resulting high speed supernatants were then transferred to fresh eppendorf tubes. Nine parts of supernatant were neutralized with 1 part 0.5 M Tris-HCl pH 6.8 and used to quantify Aβtotal and Aβ42.
To quantify the amount of Aβtotal and Aβ42 in the soluble fraction of the brain homogenates, Enzyme-Linked-Immunosorbent-Assays were used. Briefly, the standards (a dilution of synthetic Aβ1-40 and Aβ1-42, Bachem) were prepared in 1.5 mL Eppendorf tube in Ultraculture, with final concentrations ranging from 10000 to 0.3 pg/mL. The samples and standards were co-incubated with HRPO-labelled N-terminal antibody JRF/rAμ/2 for Aβ42 detection and with the biotinylated mid-domain antibody 4G8 for Aβtotal detection. 50 μl of conjugate/sample or conjugate/standards mixtures were then added to the antibody-coated plate (the capture antibodies selectively recognize the C-terminal end of Aβ42, antibody JRF/cAβ42/26, for Aβ42 detection and the N-terminus of AB, antibody JRF/rAβ/2, for Aβtotal detection). The plate was allowed to incubate overnight at 4° C. in order to allow formation of the antibody-amyloid complex. Following this incubation and subsequent wash steps the ELISA for Aβ42 quantification was finished by addition of Quanta Blu fluorogenic peroxidase substrate according to the manufacturer's instructions (Pierce Corp., Rockford, Ill.). A reading was performed after 10 to 15 min (excitation 320 nm/emission 420 nm).
In this model a Aβ42 lowering compared to untreated animals would be advantageous, in particular a Aβ42 lowering with at least 10%, more in particular a Aβ42 lowering with at least 20%.
The results are shown in Table 4 (dose 30 mg/kg oral dosing) (value for untreated animals as control (Ctrl) was set at 100): […]

Aβ38 = experiment: In vivo efficacy B-2a: brain soluble Aβ38 in non-transgenic rodents, ELISA; set-up: species or system mouse; conditions: dose 30 mg/kg oral dosing, brain soluble fraction, untreated animals (Ctrl) set at 100; for response vs control in vivo at 30 mg/kg: Mus musculus, po, read-out: Aβ38 (% vs Ctrl)_Mean
Source text: Aβ38 increasing agents can be administered in any standard form using any standard method. For example, but not limited to, Aβ38 increasing agents can be in the form of liquid, tablets or capsules that are taken orally or by injection.
as §1, with “Aβ38 increasing agents” for “Aβ42 lowering agent”, “increase Aβ38” for “reduce Aβ42”, “Aβ38” for “Aβ42”, “Aβ38 increase” for “Aβ42 lowering”
as §2, with “measuring Aβ38 increase” for “measuring Aβ42 lowering”, “example, Aβ38 increasing agents” for “example, Aβ42 lowering compounds”, “The Aβ38 increasing” for “The Aβ42 lowering”, “and Aβ38” for “and Aβ42”
as §3
as §4, with “Aβ38.” for “Aβ42.”
To quantify the amount of Aβtotal and Aβ38 in the soluble fraction of the brain homogenates, Enzyme-Linked-Immunosorbent-Assays were used. Briefly, the standards (a dilution of synthetic Aβ1-40 and Aβ1-38, ANASPEC) were prepared in 1.5 mL Eppendorf tube in Ultraculture, with final concentrations ranging from 10000 to 0.3 pg/mL. The samples and standards were co-incubated with HRPO-labelled N-terminal antibody for Aβ38 detection and with the biotinylated mid-domain antibody 4G8 for Aβtotal detection. 50 μl of conjugate/sample or conjugate/standards mixtures were then added to the antibody-coated plate (the capture antibodies selectively recognize the C-terminal end of Aβ38, antibody J&JPRD/Aβ38/5, for Aβ38 detection and the N-terminus of Aβ, antibody JRF/rAβ/2, for Aβtotal detection). The plate was allowed to incubate overnight at 4° C. in order to allow formation of the antibody-amyloid complex. Following this incubation and subsequent wash steps the ELISA for Aβ38 quantification was finished by addition of Quanta Blu fluorogenic peroxidase substrate according to the manufacturer's instructions (Pierce Corp., Rockford, Ill.). A reading was performed after 10 to 15 min (excitation 320 nm/emission 420 nm). […]

| Compound | response vs control in vivo at 30 mg/kg (Aβ42) [%] | response vs control in vivo at 30 mg/kg (Aβ38) [%] | other results |
| --- | --- | --- | --- |
| N#Cc1ccc2[nH]c(-c3nc4n(n3)CCCC4c3ccccc3C(F)(F)F)cc2c1 (stereo not shown) [Compound 18, 2-[5,6,7,8-tetrahydro-8-[2-(trifluoromethyl)phenyl][1,2,4]triazolo[1,5-a]pyridin-2-yl]-1H-indole-5-carbonitrile] | 88 | 87 | – |
| N#Cc1ccc2[nH]c(-c3nc4n(n3)CCCC4c3cccc(OC(F)(F)F)c3)cc2c1 (stereo not shown) [Compound 20, 2-[5,6,7,8-tetrahydro-8-[3-(trifluoromethoxy)phenyl][1,2,4]triazolo[1,5-a]pyridin-2-yl]-1H-indole-5-carbonitrile] | 93 | 122 | – |
| Cc1cn(-c2cc3cc(-c4nc5n(n4)CCCC5c4ccccc4C)[nH]c3cn2)cn1 (stereo not shown) [Compound 30, 5,6,7,8-tetrahydro-2-[5-(4-methyl-1H-imidazol-1-yl)-1H-pyrrolo[2,3-c]pyridin-2-yl]-8-(2-methylphenyl)-[1,2,4]triazolo[1,5-a]pyridine] | 91 | 118 | – |
| Cc1cn(-c2ccc3[nH]c(-c4nc5n(n4)CCOC5c4ccccc4C(F)(F)F)cc3c2)cn1 (stereo not shown) [Compound 37, 5,6-dihydro-2-[5-(4-methyl-1H-imidazol-1-yl)-1H-indol-2-yl]-8-[2-(trifluoromethyl)phenyl]-8H-[1,2,4]triazolo[5,1-c][1,4]oxazine] | 64 | 118 | – |
| Cc1cn(-c2ccc3[nH]c(-c4nc5n(n4)CCOC5c4ccc(F)cc4C)cc3c2)cn1 (stereo not shown) [Compound 39, 8-(4-fluoro-2-methylphenyl)-5,6-dihydro-2-[5-(4-methyl-1H-imidazol-1-yl)-1H-indo-2-yl]-8H-[1,2,4]triazolo[5,1-c][1,4]oxazine] | – | – | Aβ42 (% vs Ctrl)_Mean (Aβ42): 74 % vs Ctrl; Aβ38 (% vs Ctrl)_Mean (Aβ38): 132 % vs Ctrl |
| COc1c(C#N)ccc2[nH]c(-c3cn4c(n3)C(c3ccc(F)cc3C)OCC4)cc12 (stereo not shown) [Compound 46, 2-[8-(4-fluoro-2-methylphenyl)-5,6-dihydro-8H-imidazo[2,1-c][1,4]oxazin-2-yl]-4-methoxy-1H-indole-5-carbonitrile] | 52 | – | Aβ38 (% vs Ctrl)_Mean (Aβ38; 30 mg/kg): 109 % vs Ctrl |
| COc1c(C#N)ccc2[nH]c(-c3cn4c(n3)C(c3ccc(F)cc3C)OCC4)cc12 (stereo not shown) [Compound 47, 2-[8-(4-fluoro-2-methylphenyl)-5,6-dihydro-8H-imidazo[2,1-c][1,4]oxazin-2-yl]-4-methoxy-1H-indole-5-carbonitrile] | – | – | Aβ42 (% vs Ctrl)_Mean (Aβ42; 30 mg/kg): 45 % vs Ctrl; Aβ38 (% vs Ctrl)_Mean (Aβ38; 30 mg/kg): 87 % vs Ctrl |
| COc1c(C#N)ccc2[nH]c(-c3nc4n(n3)CCOC4c3ccccc3C(F)(F)F)cc12 (stereo not shown) [Compound 55, 2-[5,6-dihydro-8-[2-(trifluoromethyl)phenyl]-8H-[1,2,4]triazolo[5,1-c][1,4]oxazin-2-yl]-4-methoxy-1H-indole-5-carbonitrile] | 55 | 130 | – |
| COc1c(C#N)ccc2[nH]c(-c3nc4n(n3)CCCC4c3ccc(F)cc3C)cc12 (stereo not shown) [Compound 59, 2-[8-(4-fluoro-2-methylphenyl)-5,6,7,8-tetrahydro[1,2,4]triazolo[1,5-a]pyridin-2-yl]-4-methoxy-1H-indole-5-carbonitrile] | 55 | 91 | – |
| Cc1cc(F)ccc1C1CCCn2cc(-c3cc4cc(C#N)ccc4[nH]3)nc21 (stereo not shown) [Compound 63, 2-[8-(4-fluoro-2-methylphenyl)-5,6,7,8-tetrahydroimidazo[1,2-a]pyridin-2-yl]-1H-indole-5-carbonitrile] | – | – | Aβ42 (% vs Ctrl)_Mean (Aβ42; 30 mg/kg): 121 % vs Ctrl; Aβ38 (% vs Ctrl)_Mean (Aβ38; 30 mg/kg): 98 % vs Ctrl |
| Cc1cc(F)ccc1C1CCCn2cc(-c3cc4cc(C#N)ccc4[nH]3)nc21 (stereo not shown) [Compound 64, 2-[8-(4-fluoro-2-methylphenyl)-5,6,7,8-tetrahydroimidazo[1,2-a]pyridin-2-yl]-1H-indole-5-carbonitrile] | – | – | Aβ42 (% vs Ctrl)_Mean (Aβ42; 30 mg/kg): 48 % vs Ctrl; Aβ38 (% vs Ctrl)_Mean (Aβ38; 30 mg/kg): 122 % vs Ctrl |
| Cc1cn(-c2ccc3[nH]c(-c4nc5n(n4)CCCC5c4ccc(F)cc4C)cc3n2)cn1 (stereo not shown) [Compound 65, 8-(4-fluoro-2-methylphenyl)-5,6,7,8-tetrahydro-2-[5-(4-methyl-1H-imidazol-1-yl)-1H-pyrrolo[3,2-b]pyridin-2-yl]-[1,2,4]triazolo[1,5-a]pyridine] | 82 | 101 | – |
| Cc1cc(F)ccc1C1CCCn2nc(-c3cc4nc(-c5cnn(C)c5)ccc4[nH]3)nc21 (stereo not shown) [Compound 69, 8-(4-fluoro-2-methylphenyl)-5,6,7,8-tetrahydro-2-[5-(1-methyl-1H-pyrazol-4-yl)-1H-pyrrolo[3,2-b]pyridin-2-yl]-[1,2,4]triazolo[1,5-a]pyridine] | 83 | 106 | – |
| Cc1cn(-c2cc3cc(-c4nc5n(n4)CCCC5c4ccc(F)cc4C)[nH]c3cn2)cn1 (stereo not shown) [Compound 71, 8-(4-fluoro-2-methylphenyl)-5,6,7,8-tetrahydro-2-[5-(4-methyl-1H-imidazol-1-yl)-1H-pyrrolo[2,3-c]pyridin-2-yl]-[1,2,4]triazolo[1,5-a]pyridine] | 108 | 115 | – |
